# Reference: patent publication US20260020570A1, “HERBICIDAL COMBINATIONS AND A METHOD FOR CONTROLLING UNDESIRED VEGETATION” (UPL Mauritius Limited, priority 2022, published 2026)
# Tested on: Eleusine indica
# Experiment: Post-emergence herbicidal efficacy of L-glufosinate ammonium, additional herbicides and their combinations; expected efficacy by the Colby method
# Type: in vivo
# Description: The following products were used for testing the weed control efficacy of present herbicidal combinations.
# Evaluation of Post-Emergence Herbicidal Activity:
# Methodology: Trials were carried out to evaluate the efficacy of the combinations comprising L-glufosinate ammonium and the additional herbicides on Eleusine genus weeds.
# All treatments were in 4 replications per treatment with a spray volume of about 150 L/ha.
# Efficacy Evaluation: The expected efficacy of a combination comprising L-glufosinate ammonium and additional herbicides was calculated using the well-established Colby method.
# In the Colby method, the expected (or predicted) response of a combination of herbicides is calculated by taking the product of the observed response for each individual component of the combination when applied alone, divided by 100, and subtracting this value from the sum of the observed response for each component when applied alone. An unexpected enhancement in efficacy of the combination is then determined by comparing the observed response of the combination to the expected (or predicted) response as calculated from the observed response of each individual component alone. […] The Colby method requires only a single dose of each herbicide applied alone and the mixture of both doses. The formula used to calculate the expected efficacy (EE) which was compared with the observed efficacy (OE) to determine the efficacy of the present disclosure is explained hereinbelow:
# The expected efficacy for a combination of two active ingredients is as follows:
# [formula] • wherein, • A=Observed efficacy of active ingredient A at the same concentration as used in the mixture. • B=Observed efficacy of the active ingredient B at the same concentration as used in the mixture.
smiles,measurement,setting,value
CCc1cccc(C)c1N(COC(C)C)C(=O)CCl [Propisochlor],Observed efficacy (%) of Propisochlor (540 g a.i./ha),"7 DAA, Table 13",0%
same,Observed efficacy (%) of Propisochlor (540 g a.i./ha),"14 DAA, Table 13",0%
"CS(=O)(=O)c1ccc(C(=O)C2C(=O)CCCC2=O)c(Cl)c1COCC(F)(F)F [tembotrione, Tembotrione]",Observed efficacy (%) of tembotrione (53 g a.i./ha),"3 DAA, Table 15",5%
same,Observed efficacy (%) of tembotrione (53 g a.i./ha),"7 DAA, Table 15",15%
same,Observed efficacy (%) of tembotrione (53 g a.i./ha),"14 DAA, Table 15",40%
same,Observed efficacy (%) of tembotrione (53 g a.i./ha),"21 DAA, Table 15",38%
same,Observed efficacy (%) of tembotrione (53 g a.i./ha),"28 DAA, Table 15",35%
same,Observed efficacy (%) of tembotrione (53 g a.i./ha),"35 DAA, Table 15",30%
CS(=O)(=O)c1cc(C(F)(F)F)ccc1C(=O)c1cnoc1C1CC1 [Isoxaflutole],Observed efficacy (%) of Isoxaflutole (60 g a.i./ha),"7 DAA, Table 10",40%
same,Observed efficacy (%) of Isoxaflutole (60 g a.i./ha),"14 DAA, Table 10",75%
same,Observed efficacy (%) of Isoxaflutole (60 g a.i./ha),"21 DAA, Table 10",85%
CP(=O)(O)CC[C@H](N)C(=O)O.N [L-glufosinate ammonium],Observed efficacy (%) of L-glufosinate ammonium (150 g a.i./ha),"3 DAA, Table 15",40%
same,Observed efficacy (%) of L-glufosinate ammonium (150 g a.i./ha),"7 DAA, Table 8",35%
same,Observed efficacy (%) of L-glufosinate ammonium (150 g a.i./ha),"7 DAA, Table 9",35%
same,Observed efficacy (%) of L-glufosinate ammonium (150 g a.i./ha),"7 DAA, Table 10",35%
same,Observed efficacy (%) of L-glufosinate ammonium (150 g a.i./ha),"7 DAA, Table 11",35%
same,Observed efficacy (%) of L-glufosinate ammonium (150 g a.i./ha),"7 DAA, Table 12",40%
same,Observed efficacy (%) of L-glufosinate ammonium (150 g a.i./ha),"7 DAA, Table 13",35%
same,Observed efficacy (%) of L-glufosinate ammonium (150 g a.i./ha),"7 DAA, Table 15",50%
same,Observed efficacy (%) of L-glufosinate ammonium (150 g a.i./ha),"7 DAA, Table 18",70%
same,Observed efficacy (%) of L-glufosinate ammonium (150 g a.i./ha),"14 DAA, Table 8",25%
same,Observed efficacy (%) of L-glufosinate ammonium (150 g a.i./ha),"14 DAA, Table 9",25%
same,Observed efficacy (%) of L-glufosinate ammonium (150 g a.i./ha),"14 DAA, Table 10",25%
same,Observed efficacy (%) of L-glufosinate ammonium (150 g a.i./ha),"14 DAA, Table 11",30%
same,Observed efficacy (%) of L-glufosinate ammonium (150 g a.i./ha),"14 DAA, Table 12",30%
same,Observed efficacy (%) of L-glufosinate ammonium (150 g a.i./ha),"14 DAA, Table 13",30%
same,Observed efficacy (%) of L-glufosinate ammonium (150 g a.i./ha),"14 DAA, Table 15",40%
same,Observed efficacy (%) of L-glufosinate ammonium (150 g a.i./ha),"14 DAA, Table 18",65%
same,Observed efficacy (%) of L-glufosinate ammonium (150 g a.i./ha),"21 DAA, Table 8",20%
same,Observed efficacy (%) of L-glufosinate ammonium (150 g a.i./ha),"21 DAA, Table 9",15%
same,Observed efficacy (%) of L-glufosinate ammonium (150 g a.i./ha),"21 DAA, Table 10",20%
same,Observed efficacy (%) of L-glufosinate ammonium (150 g a.i./ha),"21 DAA, Table 12",20%
same,Observed efficacy (%) of L-glufosinate ammonium (150 g a.i./ha),"21 DAA, Table 15",38%
same,Observed efficacy (%) of L-glufosinate ammonium (150 g a.i./ha),"21 DAA, Table 16",35%
same,Observed efficacy (%) of L-glufosinate ammonium (150 g a.i./ha),"21 DAA, Table 17",25%
same,Observed efficacy (%) of L-glufosinate ammonium (150 g a.i./ha),"21 DAA, Table 18",60%
same,Observed efficacy (%) of L-glufosinate ammonium (150 g a.i./ha),"28 DAA, Table 8",10%
same,Observed efficacy (%) of L-glufosinate ammonium (150 g a.i./ha),"28 DAA, Table 9",5%
same,Observed efficacy (%) of L-glufosinate ammonium (150 g a.i./ha),"28 DAA, Table 12",10%
same,Observed efficacy (%) of L-glufosinate ammonium (150 g a.i./ha),"28 DAA, Table 14",40%
same,Observed efficacy (%) of L-glufosinate ammonium (150 g a.i./ha),"28 DAA, Table 15",30%
same,Observed efficacy (%) of L-glufosinate ammonium (150 g a.i./ha),"28 DAA, Table 17",20%
same,Observed efficacy (%) of L-glufosinate ammonium (150 g a.i./ha),"28 DAA, Table 18",50%
same,Observed efficacy (%) of L-glufosinate ammonium (150 g a.i./ha),"35 DAA, Table 15",20%
same,Observed efficacy (%) of L-glufosinate ammonium (150 g a.i./ha),"35 DAA, Table 17",18%
COc1c(Cl)ccc(Cl)c1C(=O)O [Dicamba],Observed efficacy (%) of Dicamba (228 g a.i./ha),"28 DAA, Table 14",5%
Cc1ccc2c(c1)[C@H](Nc1nc(N)nc(C(C)F)n1)[C@@H](C)C2 (some centres unmarked) [Indaziflam],Observed efficacy (%) of Indaziflam (50 g a.i./ha),"7 DAA, Table 9",60%
same,Observed efficacy (%) of Indaziflam (50 g a.i./ha),"14 DAA, Table 9",80%
same,Observed efficacy (%) of Indaziflam (50 g a.i./ha),"21 DAA, Table 9",85%
same,Observed efficacy (%) of Indaziflam (50 g a.i./ha),"28 DAA, Table 9",85%
"C[N+](C)(C)CCO.O=C([O-])COc1ccc(Cl)cc1Cl [2,4-D choline]","Observed efficacy (%) of 2,4-D choline (228 g a.i./ha)","7 DAA, Table 18",10%
same,"Observed efficacy (%) of 2,4-D choline (228 g a.i./ha)","14 DAA, Table 18",10%
same,"Observed efficacy (%) of 2,4-D choline (228 g a.i./ha)","21 DAA, Table 18",10%
same,"Observed efficacy (%) of 2,4-D choline (228 g a.i./ha)","28 DAA, Table 18",5%
Cn1nc(C(F)(F)F)c(CS(=O)(=O)C2=NOC(C)(C)C2)c1OC(F)F [Pyroxasulfone],Observed efficacy (%) of Pyroxasulfone (75 g a.i./ha),"7 DAA, Table 11",5%
same,Observed efficacy (%) of Pyroxasulfone (75 g a.i./ha),"14 DAA, Table 11",30%
"C[C@@H](Oc1ccc(Oc2cnc3cc(Cl)ccc3n2)cc1)C(=O)OCC1CCCO1 (some centres unmarked) [quizalofop-p-tefuryl, Quizalofop-p-tefuryl]",Observed efficacy (%) of quizalofop-p-tefuryl (25 g a.i./ha),"21 DAA, Table 17",10%
same,Observed efficacy (%) of quizalofop-p-tefuryl (25 g a.i./ha),"28 DAA, Table 17",5%
same,Observed efficacy (%) of quizalofop-p-tefuryl (25 g a.i./ha),"35 DAA, Table 17",5%
"CCOC(=O)C(C)Oc1ccc(Oc2cnc3cc(Cl)ccc3n2)cc1 (centres unmarked) [quizalofop-ethyl, Quizalofop-ethyl]",Observed efficacy (%) of quizalofop-ethyl (25 g a.i./ha),"21 DAA, Table 16",95%
CCc1cccc(C)c1N(C(=O)CCl)[C@@H](C)COC [S-metolachlor],Observed efficacy (%) of S-metolachlor (960 g a.i./ha),"7 DAA, Table 8",5%
same,Observed efficacy (%) of S-metolachlor (960 g a.i./ha),"14 DAA, Table 8",40%
same,Observed efficacy (%) of S-metolachlor (960 g a.i./ha),"21 DAA, Table 8",40%
same,Observed efficacy (%) of S-metolachlor (960 g a.i./ha),"28 DAA, Table 8",65%
"CCN(CC)C(=O)C(C)Oc1cccc2ccccc12 (centres unmarked) [napropamide, Napropamide]",Observed efficacy (%) of napropamide (675 g a.i./ha),"7 DAA, Table 12",5%
same,Observed efficacy (%) of napropamide (675 g a.i./ha),"14 DAA, Table 12",5%
same,Observed efficacy (%) of napropamide (675 g a.i./ha),"21 DAA, Table 12",5%
same,Observed efficacy (%) of napropamide (675 g a.i./ha),"28 DAA, Table 12",5%
